Test results taken from the NIST ThermoML archive (doi:10.1016/j.jct.2017.06.001).
Numbers after ± are expanded uncertainties.

Test: xn = mol fraction of the nth substance listed
Conditions: 100 kPa, Liquid; for speed of sound: Frequency=5 MHz, Pulse-echo method; for mass density: Vibrating tube method

OCCCCCO [1,5-pentanediol] + O
Conditions	mass density [kg/m3]	speed of sound [m/s]
308.15 K, x1 = 0.005	993.57 ± 0.52	–
308.15 K, x1 = 0.0101	993.45 ± 1	–
308.15 K, x1 = 0.0196	993.6 ± 1	–
308.15 K, x1 = 0.0251	993.93 ± 1	–
308.15 K, x1 = 0.0304	994.32 ± 1	–
308.15 K, x1 = 0.05	995.28 ± 1	–
308.15 K, x1 = 0.0769	995.98 ± 1	–
308.15 K, x1 = 0.0798	–	1647 ± 1.2
308.15 K, x1 = 0.0835	–	1649.2 ± 1.2
308.15 K, x1 = 0.0879	–	1651.5 ± 1.2
308.15 K, x1 = 0.0918	–	1653.4 ± 1.2
308.15 K, x1 = 0.0964	–	1655.5 ± 1.2
308.15 K, x1 = 0.1002	996.54 ± 1.1	1657 ± 1.2
308.15 K, x1 = 0.106	–	1659 ± 1.2
308.15 K, x1 = 0.1116	–	1660.7 ± 1.2
308.15 K, x1 = 0.1172	–	1662.1 ± 1.2
308.15 K, x1 = 0.1233	–	1663.4 ± 1.2
308.15 K, x1 = 0.131	–	1664.8 ± 1.2
308.15 K, x1 = 0.1377	–	1665.7 ± 1.2
308.15 K, x1 = 0.1435	–	1666.3 ± 1.2
308.15 K, x1 = 0.1438	996.71 ± 1.1	–
308.15 K, x1 = 0.1514	–	1666.9 ± 1.3
308.15 K, x1 = 0.161	–	1667.4 ± 1.3
308.15 K, x1 = 0.1675	–	1667.5 ± 1.3
308.15 K, x1 = 0.1737	–	1667.6 ± 1.3
308.15 K, x1 = 0.1787	–	1667.6 ± 1.3
308.15 K, x1 = 0.1838	–	1667.5 ± 1.3
308.15 K, x1 = 0.1845	996.26 ± 1.1	–
308.15 K, x1 = 0.1893	–	1667.4 ± 1.3
308.15 K, x1 = 0.1953	–	1667.2 ± 1.3
308.15 K, x1 = 0.2011	–	1667 ± 1.3
308.15 K, x1 = 0.2239	–	1665.8 ± 1.3
308.15 K, x1 = 0.2306	–	1665.4 ± 1.3
308.15 K, x1 = 0.2378	–	1664.9 ± 1.3
308.15 K, x1 = 0.2491	–	1664 ± 1.3
308.15 K, x1 = 0.2503	995.17 ± 1.2	–
308.15 K, x1 = 0.2581	–	1663.3 ± 1.3
308.15 K, x1 = 0.2683	–	1662.5 ± 1.4
308.15 K, x1 = 0.2832	–	1661.2 ± 1.4
308.15 K, x1 = 0.3	994.06 ± 1.2	–
308.15 K, x1 = 0.3005	–	1659.5 ± 1.4
308.15 K, x1 = 0.3223	–	1657.4 ± 1.4
308.15 K, x1 = 0.3343	993.37 ± 1.3	–
308.15 K, x1 = 0.3402	–	1655.5 ± 1.4
308.15 K, x1 = 0.3515	–	1654.3 ± 1.4
308.15 K, x1 = 0.3735	–	1651.8 ± 1.5
308.15 K, x1 = 0.3924	–	1649.6 ± 1.5
308.15 K, x1 = 0.4062	–	1647.9 ± 1.5
308.15 K, x1 = 0.4171	991.68 ± 1.4	–
308.15 K, x1 = 0.4304	–	1644.9 ± 1.5
308.15 K, x1 = 0.4462	–	1642.8 ± 1.5
308.15 K, x1 = 0.454	990.78 ± 1.4	–
308.15 K, x1 = 0.4661	–	1640.2 ± 1.6
308.15 K, x1 = 0.4803	–	1638.3 ± 1.6
308.15 K, x1 = 0.4957	–	1636.1 ± 1.6
308.15 K, x1 = 0.5003	989.8 ± 1.5	–
308.15 K, x1 = 0.5119	–	1633.9 ± 1.6
308.15 K, x1 = 0.5238	–	1632.2 ± 1.6
308.15 K, x1 = 0.5362	989.1 ± 1.5	–
308.15 K, x1 = 0.5406	–	1629.8 ± 1.6
308.15 K, x1 = 0.5482	–	1628.7 ± 1.7
308.15 K, x1 = 0.5622	–	1626.7 ± 1.7
308.15 K, x1 = 0.5848	–	1623.5 ± 1.7
308.15 K, x1 = 0.6035	–	1620.8 ± 1.7
308.15 K, x1 = 0.6177	987.6 ± 1.7	–
308.15 K, x1 = 0.6216	–	1618.2 ± 1.8
308.15 K, x1 = 0.6446	–	1615 ± 1.8
308.15 K, x1 = 0.6478	987 ± 1.7	–
308.15 K, x1 = 0.6646	–	1612.2 ± 1.8
308.15 K, x1 = 0.6864	–	1609.3 ± 1.8
308.15 K, x1 = 0.7025	986.1 ± 1.8	–
308.15 K, x1 = 0.7086	–	1606.4 ± 1.9
308.15 K, x1 = 0.7293	–	1603.7 ± 1.9
308.15 K, x1 = 0.7497	–	1601.1 ± 1.9
308.15 K, x1 = 0.7504	985.3 ± 1.9	–
308.15 K, x1 = 0.7689	–	1598.8 ± 2
308.15 K, x1 = 0.7904	–	1596.2 ± 2
308.15 K, x1 = 0.7927	984.6 ± 2	–
308.15 K, x1 = 0.8099	–	1593.9 ± 2
308.15 K, x1 = 0.8308	–	1591.5 ± 2
308.15 K, x1 = 0.8561	–	1588.6 ± 2.1
308.15 K, x1 = 0.8605	983.4 ± 2.1	–
308.15 K, x1 = 0.8812	–	1585.8 ± 2.1
308.15 K, x1 = 0.9004	982.7 ± 2.2	–
308.15 K, x1 = 0.9098	–	1582.5 ± 2.2
308.15 K, x1 = 0.9326	–	1579.9 ± 2.2
308.15 K, x1 = 0.9496	981.7 ± 2.3	–
308.15 K, x1 = 0.9519	–	1577.5 ± 2.2
308.15 K, x1 = 0.9707	–	1575.2 ± 2.3
308.15 K, x1 = 0.9812	–	1573.8 ± 2.3
308.15 K, x1 = 0.9864	–	1573.2 ± 2.3
308.15 K, x1 = 0.9944	–	1572.1 ± 2.3
308.15 K, x1 = 1	980.7 ± 2.1	1571.3 ± 2.3
313.15 K, x1 = 0.0002	–	1529.3 ± 1.2
313.15 K, x1 = 0.0004	–	1529.9 ± 1.2
313.15 K, x1 = 0.0006	–	1530.6 ± 1.2
313.15 K, x1 = 0.0009	–	1531.5 ± 1.2
313.15 K, x1 = 0.0013	–	1532.4 ± 1.2
313.15 K, x1 = 0.0016	–	1533.4 ± 1.2
313.15 K, x1 = 0.002	–	1534.5 ± 1.2
313.15 K, x1 = 0.0025	–	1535.9 ± 1.2
313.15 K, x1 = 0.0032	–	1537.6 ± 1.2
313.15 K, x1 = 0.0039	–	1539.6 ± 1.2
313.15 K, x1 = 0.0045	–	1541.2 ± 1.2
313.15 K, x1 = 0.0052	–	1542.9 ± 1.2
313.15 K, x1 = 0.0058	–	1544.6 ± 1.2
313.15 K, x1 = 0.0065	–	1546.5 ± 1.2
313.15 K, x1 = 0.0073	–	1548.3 ± 1.2
313.15 K, x1 = 0.0081	–	1550.4 ± 1.2
313.15 K, x1 = 0.0088	–	1552.1 ± 1.2
313.15 K, x1 = 0.0097	–	1554.2 ± 1.2
313.15 K, x1 = 0.0107	–	1556.6 ± 1.2
313.15 K, x1 = 0.0118	–	1559 ± 1.2
313.15 K, x1 = 0.013	–	1561.7 ± 1.2
313.15 K, x1 = 0.0142	–	1564.4 ± 1.2
313.15 K, x1 = 0.0153	–	1566.8 ± 1.2
313.15 K, x1 = 0.0164	–	1569.2 ± 1.2
313.15 K, x1 = 0.0176	–	1571.6 ± 1.2
313.15 K, x1 = 0.0187	–	1573.8 ± 1.2
313.15 K, x1 = 0.02	–	1576.4 ± 1.2
313.15 K, x1 = 0.0214	–	1579 ± 1.2
313.15 K, x1 = 0.0227	–	1581.5 ± 1.2
313.15 K, x1 = 0.0243	–	1584.4 ± 1.2
313.15 K, x1 = 0.0259	–	1587.2 ± 1.2
313.15 K, x1 = 0.0276	–	1590 ± 1.2
313.15 K, x1 = 0.0293	–	1592.8 ± 1.2
313.15 K, x1 = 0.0308	–	1595.3 ± 1.2
313.15 K, x1 = 0.0322	–	1597.4 ± 1.2
313.15 K, x1 = 0.0341	–	1600.2 ± 1.2
313.15 K, x1 = 0.036	–	1602.9 ± 1.2
313.15 K, x1 = 0.0378	–	1605.4 ± 1.2
313.15 K, x1 = 0.0395	–	1607.7 ± 1.2
313.15 K, x1 = 0.0417	–	1610.5 ± 1.2
313.15 K, x1 = 0.0441	–	1613.4 ± 1.2
313.15 K, x1 = 0.0462	–	1615.8 ± 1.2
313.15 K, x1 = 0.0486	–	1618.4 ± 1.2
313.15 K, x1 = 0.0505	–	1620.4 ± 1.2
313.15 K, x1 = 0.0522	–	1622.1 ± 1.2
313.15 K, x1 = 0.0542	–	1624.1 ± 1.2
313.15 K, x1 = 0.0571	–	1626.6 ± 1.2
313.15 K, x1 = 0.0588	–	1628.1 ± 1.2
313.15 K, x1 = 0.0608	–	1629.8 ± 1.2
313.15 K, x1 = 0.0624	–	1631.2 ± 1.2
313.15 K, x1 = 0.0648	–	1632.9 ± 1.2
313.15 K, x1 = 0.0682	–	1635.4 ± 1.2
313.15 K, x1 = 0.0705	–	1636.9 ± 1.2
313.15 K, x1 = 0.0732	–	1638.6 ± 1.2
313.15 K, x1 = 0.0767	–	1640.7 ± 1.2
313.15 K, x1 = 0.0802	–	1642.6 ± 1.2
313.15 K, x1 = 0.0837	–	1644.2 ± 1.2
313.15 K, x1 = 0.0875	–	1646 ± 1.2
313.15 K, x1 = 0.0918	–	1647.7 ± 1.2
313.15 K, x1 = 0.0975	–	1649.7 ± 1.2
313.15 K, x1 = 0.1013	–	1650.9 ± 1.2
313.15 K, x1 = 0.106	–	1652.2 ± 1.2
313.15 K, x1 = 0.1096	–	1653 ± 1.2
